According to patent US8513271B2, “Pyrimidine compounds as delta opioid receptor modulators” (Janssen Pharmaceutica, NV, priority 2009, dated 2013):
Like-named read-outs stand apart in the source and are kept apart here.

Biological target: T1, delta opioid receptor (Mus musculus, UniProt P32300)
T1 construct: NG108-15 cell membranes were purchased from Applied Cell Sciences (Rockville, Md.); host or cells: NG108-15 cell membranes
Assay: [35S]GTPγS binding assay in NG108-15 cell membranes (delta opioid functional assay), 200 nM screen
Format: biochemical
Conditions: NG108-15 cell membranes; for EC50 / GTPγS δ-RelEfficacy @200 nM: averages if tested more than once; for GTPγS δ-opioid receptor Rel Efficacy: relative efficacy from dose response; for GTPγS δ-RelEfficacy @200 nM: 200 nM test compound, relative to calculated max of SNC80 dose response curve

[1] = read-out: GTPγS δ-opioid receptor EC50
[2] = GTPγS δ-opioid receptor EC50 (μM)

T1 sequence (P32300 whole entry): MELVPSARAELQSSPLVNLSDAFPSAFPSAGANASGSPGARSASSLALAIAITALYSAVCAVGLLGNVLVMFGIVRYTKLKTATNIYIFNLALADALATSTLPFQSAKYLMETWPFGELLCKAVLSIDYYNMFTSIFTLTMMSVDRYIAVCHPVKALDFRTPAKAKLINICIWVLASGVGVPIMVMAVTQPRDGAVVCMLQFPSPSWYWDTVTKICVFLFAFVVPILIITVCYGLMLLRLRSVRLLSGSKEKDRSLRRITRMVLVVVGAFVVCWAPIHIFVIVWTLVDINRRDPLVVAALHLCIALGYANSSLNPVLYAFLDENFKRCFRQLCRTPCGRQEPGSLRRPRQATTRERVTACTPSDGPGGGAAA

Row | Structure (SMILES) | EC50 [1] | GTPγS δ-opioid receptor Rel Efficacy | EC50 [2] | GTPγS δ-RelEfficacy @200 nM
1 | COc1ccc(Oc2nc(-c3cncc(OC)c3)ncc2NC2CCCC(N)C2)cc1 (mixture of isomers) [Cpd 309] | 0.035 µM | 1.162 |  | 
2 | COc1ccc(Oc2nc(-c3cncc(SC)c3)ncc2NC2CCCC(N)C2)cc1 (racemic) [Cpd 310] |  | 1.042 | 0.031 µM | 
3 | COc1ccc(Oc2nc(-c3cccnc3)ncc2NC2CCCC(N)C2)cc1 (single isomer, unassigned) [Cpd 307] |  | 1.191 | 0.011 µM | 0.880
4 | COc1ccc(Oc2nc(-c3cccnc3)ncc2NC2CCCCC2N)cc1 (single isomer, unassigned) [Cpd 308] |  |  |  | 0.140
5 | COc1ccc(Oc2nc(-c3cncc(SC)c3)ncc2NC2CCCC(N)C2)cc1 (single isomer, unassigned) [Cpd 319] |  | 0.871 | 0.112 µM | 
6 | COc1ccc(Oc2nc(-c3cccnc3)ncc2NC2CCCC(N)C2)cc1 (single isomer, unassigned) [Cpd 323] |  | 0.988 | 0.06 µM | 
7 | CCN(CC)C(=O)c1cccc(Oc2nc(-c3cncc(F)c3)ncc2NC[C@@H]2CCCN2)c1 [Cpd 170] |  |  |  | 0.176
8 | O=C(c1cccc(Oc2nc(-c3cncc(F)c3)ncc2NC[C@@H]2CCCN2)c1)N1CCCC1 [Cpd 171] |  |  |  | 0.257
9 | O=C(c1cccc(Oc2nc(-c3cncc(F)c3)ncc2NC[C@@H]2CCCN2)c1)N1CCCCC1 [Cpd 172] |  |  |  | 0.246
10 | O=C(c1cccc(Oc2nc(-c3cncc(F)c3)ncc2NC[C@@H]2CCCN2)c1)N1CCOCC1 [Cpd 173] |  |  |  | 0.249
11 | CN1CCN(C(=O)c2cccc(Oc3nc(-c4cncc(F)c4)ncc3NC[C@@H]3CCCN3)c2)CC1 [Cpd 174] |  |  |  | 0.205
12 | CCN(CC)C(=O)c1ccc(Oc2nc(-c3cccnc3)ncc2NC[C@@H]2CCCN2)cc1 [Cpd 175] |  |  |  | 0.005
13 | O=C(c1ccc(Oc2nc(-c3cncc(F)c3)ncc2NC[C@@H]2CCCN2)cc1)N1CCCC1 [Cpd 176] |  |  |  | 0.112
14 | O=C(Nc1ccc(Oc2nc(-c3cccnc3)ncc2NC[C@@H]2CCCN2)cc1)OCc1ccccc1 [Cpd 177, (4-{2-Pyridin-3-yl-5-[(pyrrolidin-2-(S)-ylmethyl)-amino]-pyrimidin-4-yloxy}-phenyl)-carbamic acid benzyl ester] | 0.255 µM | 1.389 |  | 0.511
15 | Cc1ccc(Oc2nc(-c3cncc(F)c3)ncc2NC[C@@H]2CCCN2)cc1 [Cpd 178] | 0.3 µM | 1.239 |  | 0.578
16 | CCc1ccc(Oc2nc(-c3cncc(C#N)c3)ncc2NC[C@@H]2CCCN2)cc1 [Cpd 179] | 0.119 µM | 1.182 |  | 0.601
17 | CCc1ccc(Oc2nc(-c3cncc(Cl)c3)ncc2NC[C@@H]2CCCN2)cc1 [Cpd 180] |  |  |  | 0.250

Row | Structure (SMILES) | EC50 [1] | GTPγS δ-opioid receptor Rel Efficacy | EC50 [2] | GTPγS δ-RelEfficacy @200 nM
18 | COc1ccc(Oc2nc(-c3cncnc3)ncc2N(C[C@@H]2CCCN2)C(C)=O)cc1 [Cpd 181, N-[4-(4-Methoxy-phenoxy)-[2,5′]bipyrimidinyl-5-yl]-N-pyrrolidin-2-(S)-ylmethyl-acetamide] |  |  |  | 0.139
19 | CCc1ccc(Oc2nc(-c3cncc(F)c3)ncc2NC[C@@H]2CCCN2)cc1 [Cpd 182] | 0.377 µM | 1.065 |  | 0.470
20 | Cc1ccc(Oc2nc(-c3cncc(C#N)c3)ncc2NC[C@@H]2CCCN2)cc1F [Cpd 183] |  | 1.091 | 0.091 µM | 0.723
21 | CCc1ccc(Oc2nc(-c3cccnc3)ncc2NC[C@@H]2CCCN2)cc1 [Cpd 184] | 0.418 µM | 1.271 |  | 0.497
22 | Cc1ccc(Oc2nc(-c3cncc(F)c3)ncc2NC[C@@H]2CCCN2)cc1F [Cpd 185] | 0.101 µM | 1.014 |  | 0.447
23 | Cc1ccc(Oc2nc(-c3cncc(Cl)c3)ncc2NC[C@@H]2CCCN2)cc1F [Cpd 186] | 0.331 µM | 1.113 |  | 0.466
24 | Cc1ccc(Oc2nc(-c3cccnc3)ncc2NC[C@@H]2CCCN2)cc1F [Cpd 187] | 0.16 µM | 1.104 |  | 0.497
25 | O=C(Nc1cccc(Oc2nc(-c3cccnc3)ncc2NC[C@@H]2CCCN2)c1)OCc1ccccc1 [Cpd 188] | 0.219 µM | 1.950 |  | 0.779
26 | Cc1ccc(Oc2nc(-c3cncc(C#N)c3)ncc2NC[C@@H]2CCCN2)c(F)c1F [Cpd 189] |  |  |  | 0.375
27 | Cc1ccc(Oc2nc(-c3cncc(Cl)c3)ncc2NC[C@@H]2CCCN2)c(F)c1F [Cpd 190] |  |  |  | 0.222
28 | Cc1ccc(Oc2nc(-c3cncc(F)c3)ncc2NC[C@@H]2CCCN2)c(F)c1F [Cpd 191] |  |  |  | 0.410
29 | Cc1ccc(Oc2nc(-c3cccnc3)ncc2NC[C@@H]2CCCN2)c(F)c1F [Cpd 192] |  |  |  | 0.135
30 | COc1ccc(Oc2nc(-c3cncc(F)c3)ncc2NC[C@@H]2C[C@@H](F)CN2)cc1 [Cpd 193] |  | 1.090 | 0.032 µM | 0.801
31 | COc1ccc(Oc2nc(-c3cncc(Cl)c3)ncc2NC[C@@H]2C[C@@H](F)CN2)cc1 [Cpd 194] |  | 1.034 | 0.022 µM | 0.665
32 | CCc1ccc(Oc2nc(-c3cncc(C#N)c3)ncc2NC[C@@H]2C[C@@H](F)CN2)cc1 [Cpd 195] | 0.194 µM | 1.119 |  | 0.477
33 | COc1ccc(Oc2nc(-c3cccnc3)ncc2NC[C@@H]2C[C@@H](F)CN2)cc1 [Cpd 196] |  | 1.146 | 0.0693 µM | 0.800
34 | O=C(Nc1ccc(Oc2nc(-c3cncc(F)c3)ncc2NC[C@@H]2CCCN2)cc1)OCc1ccccc1 [Cpd 197] | 0.145 µM | 1.289 |  | 0.411
